Experimental data reported in US9115101B2 (Genentech, Inc., priority 2012, dated 2015).

Biological target: T1, RORc ligand binding domain (Homo sapiens, UniProt P51449)
T1 construct: host or cells: E. coli
T1 sequence (P51449 269-508 limits assumed): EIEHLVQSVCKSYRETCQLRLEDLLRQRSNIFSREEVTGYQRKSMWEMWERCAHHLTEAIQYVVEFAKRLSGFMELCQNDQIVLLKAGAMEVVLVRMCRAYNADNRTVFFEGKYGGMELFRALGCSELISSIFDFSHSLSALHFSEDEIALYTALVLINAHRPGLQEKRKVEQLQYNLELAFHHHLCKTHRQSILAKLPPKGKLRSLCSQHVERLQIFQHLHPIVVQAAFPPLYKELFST
Assay: In Vitro RORc Ligand Binding Assay (25-[3H]hydroxycholesterol radioligand filtration)
Settings: In Vitro RORc Ligand Binding Assay; Table 4; read-out: RORc IC50

Question: With `CC(=O)N1CCN(c2ccc(CN3C4CCCC4CC(c4ccccc4)S3(=O)=O)c(F)c2)CC1` (single isomer, unassigned) [Example 252, 1-(4-(4-((2,2-dioxido-3-phenylhexahydro-cyclopenta[c][1,2]thiazin-1(3H)-yl)methyl)-3-fluorophenyl)piper-azin-1-yl)ethanone] as the compound, how does the IC50 read?
Answer: 68 nM

Question: For `CS(=O)(=O)N1CCC(Nc2ccc(CN3CC4(CC4)CC(c4ccccc4)S3(=O)=O)c(F)c2)CC1` (single isomer, unassigned) [Example 253, 5-(2-fluoro-4-((1-(methylsulfonyl)piperidin-4-yl)amino)benzyl)-7-phenyl-6-thia-5-azaspiro[2.5]octane 6,6-dioxide], which IC50 is on record?
Answer: 7 nM

Question: `C[C@H]1CCC(c2ccccc2)S(=O)(=O)N1Cc1ccc(N2CCC(c3cnn[nH]3)CC2)cc1F` (single isomer, unassigned) [Example 254] was tested. Which IC50 did it give?
Answer: 9 nM

Question: For `C[C@H]1CCC(c2ccccc2)S(=O)(=O)N1Cc1ccc(N2CCC(c3cnn[nH]3)CC2)cc1F` (single isomer, unassigned) [Example 255], which IC50 is on record?
Answer: 12 nM

Question: `C[C@H]1CCC(c2ccccc2)S(=O)(=O)N1Cc1ccc(N2CCC(n3ccnn3)CC2)cc1F` (single isomer, unassigned) [Example 256] was tested. Which IC50 did it give?
Answer: 4 nM

Question: How did the IC50 turn out when `O=S1(=O)C(c2ccccc2)CC2(CC2)CN1Cc1ccc(N2CCC(n3cnnc3)CC2)cc1F` (single isomer, unassigned) [Example 257, 5-[2-Fluoro-4-(4-[1,2,4]triazol-4-yl-piperidin-1-yl)-benzyl]-7-phenyl-6-thia-5-aza-spiro[2.5]octane 6,6-dioxde] was run?
Answer: 54 nM

Question: Which IC50 does the source give for `CC(=O)N1CCN(c2ccc(CN3CC4(COC4)CC(c4ccccc4)S3(=O)=O)c(F)c2)CC1` (single isomer, unassigned) [Example 258, 1-(4-(4-((7,7-dioxido-8-phenyl-2-oxa-7-thia-6-azaspiro[3.5]nonan-6-yl)methyl)-3-fluorophenyl)piper-azin-1-yl)ethanone] here?
Answer: 1040 nM

Question: `O=S1(=O)C(c2ccccc2)CC2(CC2)CN1Cc1ccc(N2CCC(n3cnnc3)CC2)cc1F` (single isomer, unassigned) [Example 259, 5-[2-Fluoro-4-(4-[1,2,4]triazol-4-yl-piperidin-1-yl)-benzyl]-7-phenyl-6-thia-5-aza-spiro[2.5]octane 6,6-dioxide] was tested. Which IC50 did it give?
Answer: 57 nM

Question: For `CC(=O)N1CCN(c2ccc(CN3CC4(COC4)CC(c4ccccc4)S3(=O)=O)c(F)c2)CC1` (single isomer, unassigned) [Example 266, 1-(4-(4-((7,7-dioxido-8-phenyl-2-oxa-7-thia-6-azaspiro[3.5]nonan-6-yl)methyl)-3-fluorophenyl)piper-azin-1-yl)ethanone], which IC50 is on record?
Answer: 4330 nM

Question: `C[C@H]1CCC(c2ccccc2)S(=O)(=O)N1Cc1ccc(C(=O)NC2CCOCC2)cc1` (single isomer, unassigned) [Example 267] was tested. Which IC50 did it give?
Answer: 2810 nM

Question: Which IC50 does the source give for `CC(=O)N1CCN(c2ccc(CN3C4CC(C4)CC(c4ccccc4)S3(=O)=O)c(F)c2)CC1` (single isomer, unassigned) [Example 300, 1-{4-[4-(3,3-Dioxo-4-phenyl-3-thia-2-aza-bicyclo[4.1.1]oct-2-ylmethyl)-3-fluoro-phenyl]-piperazin-1-yl}-ethanone] here?
Answer: 44 nM

Question: `CC(=O)N1CCN(c2ccc(CN3C4CC(C4)CC(c4ccccc4)S3(=O)=O)c(F)c2)CC1` (single isomer, unassigned) [Example 301, 1-{4-[4-(3,3-Dioxo-4-pheny-3-thia-2-aza-bicyclo[4.1.1]oct-2-ylmethyl)-3-fluoro-phenyl]-piperazin-1-yl}-ethanone] was tested. Which IC50 did it give?
Answer: 308 nM

Question: Which IC50 does the source give for `N#CCC(=O)N1CCN(c2ccc(CN3CCCCC(c4ccccc4)S3(=O)=O)c(F)c2)CC1` (single isomer, unassigned) [Example 302, 3-{4-[4-(1,1-Dioxo-7-phenyl-[1,2]thiazepan-2-ylmethyl)-3-fluoro-phenyl]-piperazin-1-yl}-3-oxo-propionitrile] here?
Answer: 24 nM

Question: How did the IC50 turn out when `N#CCC(=O)N1CCN(c2ccc(CN3CCCCC(c4ccccc4)S3(=O)=O)c(F)c2)CC1` (single isomer, unassigned) [Example 303, 3-{4-[4-(1,1-Dioxo-7-phenyl-[1,2]thiazepan-2-ylmethyl)-3-fluoro-phenyl]-piperazin-1-yl}-3-oxo-propionitrile] was run?
Answer: 86 nM

Question: How did the IC50 turn out when `C[C@H](O)C(=O)N1CCN(c2ccc(CN3CCCCC(c4ccccc4)S3(=O)=O)c(F)c2)CC1` (single isomer, unassigned) [Example 304, 1-{4-[4-(1,1-Dioxo-7-phenyl-[1,2]thiazepan-2-ylmethyl)-3-fluoro-phenyl]-piperazin-1-yl}-2-hydroxy-propan-1-one] was run?
Answer: 38 nM

Question: `C[C@H](O)C(=O)N1CCN(c2ccc(CN3CCCCC(c4ccccc4)S3(=O)=O)c(F)c2)CC1` (single isomer, unassigned) [Example 305, 1-{4-[4-(1,1-Dioxo-7-phenyl-[1,2]thiazepan-2-ylmethyl)-3-fluoro-phenyl]-piperazin-1-yl}-2-hydroxy-propan-1-one] was tested. Which IC50 did it give?
Answer: 165 nM

Question: How did the IC50 turn out when `CC(=O)N1CCN(c2ccc(CN3CCCCC(c4ccccc4)S3(=O)=O)cc2)CC1` (single isomer, unassigned) [Example 306, 1-{4-[4-(1,1-Dioxo-7-phenyl-[1,2]thiazepan-2-ylmethyl)-phenyl]-piperazin-1-yl}-ethanone] was run?
Answer: 87 nM

Question: How did the IC50 turn out when `CC(=O)N1CCN(c2ccc(CN3CCCCC(c4ccccc4)S3(=O)=O)cc2)CC1` (single isomer, unassigned) [Example 307, 1-{4-[4-(1,1-Dioxo-7-phenyl-[1,2]thiazepan-2-ylmethyl)-phenyl]-piperazin-1-yl}-ethanone] was run?
Answer: 227 nM

Question: For `O=C(CO)N1CCN(c2ccc(CN3CCCCC(c4ccccc4)S3(=O)=O)c(F)c2)CC1` (single isomer, unassigned) [Example 308, 1-{4-[4-(1,1-Dioxo-7-phenyl-[1,2]thiazepan-2-ylmethyl)-3-fluoro-phenyl]-piperazin-1-yl}-2-hydroxy-ethanone], which IC50 is on record?
Answer: 29 nM

Question: How did the IC50 turn out when `C[C@H](O)C(=O)N1CCN(c2ccc(CN3CCCCC(c4ccccc4)S3(=O)=O)cc2)CC1` (single isomer, unassigned) [Example 309, 1-{4-[4-(1,1-Dioxo-7-phenyl-[1,2]thiazepan-2-ylmethyl)-phenyl]-piperazin-1-yl}-2-hydroxy-propan-1-one] was run?
Answer: 106 nM

Question: `N#CCC(=O)N1CCN(c2ccc(CN3CCCCC(c4ccccc4)S3(=O)=O)cc2)CC1` (single isomer, unassigned) [Example 310, 3-{4-[4-(1,1-Dioxo-7-phenyl-[1,2]thiazepan-2-ylmethyl)-phenyl]-piperazin-1-yl}-3-oxo-propionitrile] was tested. Which IC50 did it give?
Answer: 45 nM

Question: With `C[C@H](O)C(=O)N1CCN(c2ccc(CN3CCCCC(c4ccccc4)S3(=O)=O)cc2)CC1` (single isomer, unassigned) [Example 311, 1-{4-[4-(1,1-Dioxo-7-phenyl-[1,2]thiazepan-2-ylmethyl)-phenyl]-piperazin-1-yl}-2-hydroxy-propan-1-one] as the compound, how does the IC50 read?
Answer: 898 nM

Question: How did the IC50 turn out when `N#CCC(=O)N1CCN(c2ccc(CN3CCCCC(c4ccccc4)S3(=O)=O)cc2)CC1` (single isomer, unassigned) [Example 312, 3-{4-[4-(1,1-Dioxo-7-phenyl-[1,2]thiazepan-2-ylmethyl)-phenyl]-piperazin-1-yl}-3-oxo-propionitrile] was run?
Answer: 926 nM

Question: For `O=C(CO)N1CCN(c2ccc(CN3CCCCC(c4ccccc4)S3(=O)=O)c(F)c2)CC1` (single isomer, unassigned) [Example 313, 1-{4-[4-(1,1-Dioxo-7-phenyl-[1,2]thiazepan-2-ylmethyl)-3-fluoro-phenyl]-piperazin-1-yl}-2-hydroxy-ethanone], which IC50 is on record?
Answer: 592 nM

Question: `C[C@@H](O)C(=O)N1CCN(c2ccc(CN3CCCCC(c4ccccc4)S3(=O)=O)c(F)c2)CC1` (single isomer, unassigned) [Example 314, 1-{4-[4-(1,1-Dioxo-7-phenyl-[1,2]thiazepan-2-ylmethyl)-3-fluoro-phenyl]-piperazin-1-yl}-2-hydroxy-propan-1-one] was tested. Which IC50 did it give?
Answer: 237 nM

Question: With `C[C@@H](O)C(=O)N1CCN(c2ccc(CN3CCCCC(c4ccccc4)S3(=O)=O)cc2)CC1` (single isomer, unassigned) [Example 315, 1-{4-[4-(1,1-Dioxo-7-phenyl-[1,2]thiazepan-2-ylmethyl)-phenyl]-piperazin-1-yl}-2-hydroxy-propan-1-one] as the compound, how does the IC50 read?
Answer: 321 nM

Question: `O=C(CO)N1CCN(c2ccc(CN3CCCCC(c4ccccc4)S3(=O)=O)cc2)CC1` (single isomer, unassigned) [Example 316, 1-{4-[4-(1,1-Dioxo-7-phenyl-[1,2]thiazepan-2-ylmethyl)-phenyl]-piperazin-1-yl}-2-hydroxy-ethanone] was tested. Which IC50 did it give?
Answer: 173 nM

Question: With `C[C@@H](O)C(=O)N1CCN(c2ccc(CN3CCCCC(c4ccccc4)S3(=O)=O)cc2)CC1` (single isomer, unassigned) [Example 317, 1-{4-[4-(1,1-Dioxo-7-phenyl-[1,2]thiazepan-2-ylmethyl)-phenyl]-piperazin-1-yl}-2-hydroxy-propan-1-one] as the compound, how does the IC50 read?
Answer: 3400 nM

Question: For `O=C(CO)N1CCN(c2ccc(CN3CCCCC(c4ccccc4)S3(=O)=O)cc2)CC1` (single isomer, unassigned) [Example 318, 1-{4-[4-(1,1-Dioxo-7-phenyl-[1,2]thiazepan-2-ylmethyl)-phenyl]-piperazin-1-yl}-2-hydroxy-ethanone], which IC50 is on record?
Answer: 1970 nM

Question: For `CC(=O)N1CCN(c2ccc(CN3[C@H](C)CCCC(c4ccccc4)S3(=O)=O)c(F)c2)CC1` (single isomer, unassigned) [Example 319], which IC50 is on record?
Answer: 8 nM

Question: For `CC(=O)N1CCN(c2ccc(CN3[C@@H](C)CCCC(c4ccccc4)S3(=O)=O)c(F)c2)CC1` (single isomer, unassigned) [Example 320], which IC50 is on record?
Answer: 1920 nM

Question: With `CC(=O)N1CCN(c2ccc(CN3[C@H](C)CCCC(c4ccccc4)S3(=O)=O)c(F)c2)CC1` (single isomer, unassigned) [Example 321] as the compound, how does the IC50 read?
Answer: 16 nM

Question: How did the IC50 turn out when `CC(=O)N1CCN(c2ccc(CN3[C@@H](C)CCCC(c4ccccc4)S3(=O)=O)c(F)c2)CC1` (single isomer, unassigned) [Example 322] was run?
Answer: 26 nM
